Results reported in patent US20100172925A1, “HLA-A2-RESTRICTED T-CELL EPITOPES OF THE RESPIRATORY SYNCYTIAL VIRUS FUSION PROTEIN AS PEPTIDE-BASED VACCINES” (priority 2009, published 2010).
Entries after “also recorded” stand apart in the source; their conditions may differ. No end group written: not given here.

Experiments:
[1] = system: lungs of peptide-immunized mice infected with RSV; assay: Pathological staining of CD4+ and CD8+ T cells in lungs of peptide-immunized, RSV-infected mice; type: in vivo, mouse
Description: A recent study has generally questioned the role of CTLs in the pathogenesis of human RSV infection. Very few CD8^+ T cells in the lung infiltrates were found in human infants infected with lethal RSV. Additionally, there was little evidence for T cell cytokines in nasal secretion and few CTL can be recovered by BAL from the infants with bronchiolitis.

[2] = molecular target: T1, HLA-A*0201 molecules (Homo sapiens, UniProt P04439, D140Y/D185E/D98H/E176V/E277Q/G131W/G231S/I119V/I121R/I166T/I218V/L300P/L318F/N151K/N90K/P208A/P217A/Q86G/Q94H/R138H/R169H/T345S); assay: T2 cell-stabilization assay (T2-based HLA-A*0201 binding); settings: T2 cells, peptide 50 μg/mL; for binding affinity higher than the baseline: moderate binding affinity; for mean of fluorescence intensity (MFI) ratio, binding to HLA-A*0201: ratio to negative control (MFI=1)
T1 construct: T2 cell (which expressing HLA-A*0201)-stabilization assay; endogenous in cells; host or cells: T2 cells

[3] = system: RSV-B1; assay: Viral load in lungs after live RSV-B1 challenge of peptide-immunized mice; type: in vivo, mouse; settings: two doses of peptide; challenge 10^6 pfu live RSV-B1; 4 days post challenge
Method: HLA-A2.1 transgenic C57BL/6 mice were anesthetized with isoflurane and primed with 1×10^7 pfu/50 μL of rAd-F0, rAd-LacZ or 1×10^4 live RSV B1 via the intranasal (i.n.) route. Twenty days later, animals were boosted i.n. with the same dose of respective immunogens. For peptide-based vaccination, transgenic mice were immunized subcutaneously (s.c.) with 50 μg of individual synthetic peptides emulsified in 100 μL of incomplete Freund's adjuvant (IFA) and then boosted s.c. with the same dose of respective peptides mixed with IFA one week later. Mice were sacrificed 7 days after the boost. […] Proliferated CD4^+ or CD8^+ T cell counts were analyzed by flow cytometry (BD FACSCalibur) using PE-labeled specific antibody against CD4 or CD8, respectively. […]
In FIG. 5, mice were immunized via the intranasal route twice with the immunogen as indicated before they were intranasally challenged with 10^6 pfu of live RSV B1. Viral plaques in the lungs of the individual mice were determined 4 days post the challenge using plaque-forming assay as described in the methods. Results were expressed as the plaque number for each mouse. […] 14 and subsequently challenged with 1×10^6 pfu of live RSV-B1 viruses, as compared to 282±116 plaques detected in the lung tissues of mice immunized with the adjuvant IFA alone. […]

[4] = system: CD8+ lymphocytes of peptide-immunized HLA-Tg B6 mice; assay: CD8+ T cell proliferation (CFSE, cell dividing index) in peptide-immunized mice; type: in vivo, mouse; settings: mice immunized s.c. twice with 50 μg peptide in IFA; 8 days of restimulation by the same peptide
Method: (§1) HLA-A2.1 transgenic C57BL/6 mice were anesthetized with isoflurane and primed with 1×10^7 pfu/50 μL of rAd-F0, rAd-LacZ or 1×10^4 live RSV B1 via the intranasal (i.n.) route. Twenty days later, animals were boosted i.n. with the same dose of respective immunogens. For peptide-based vaccination, transgenic mice were immunized subcutaneously (s.c.) with 50 μg of individual synthetic peptides emulsified in 100 μL of incomplete Freund's adjuvant (IFA) and then boosted s.c. with the same dose of respective peptides mixed with IFA one week later. Mice were sacrificed 7 days after the boost. The splenocytes were isolated and stimulated with synthetic CD8 epitope peptides in the presence of 5-(6)-carboxyfluorescein diacetate succinimidyl ester (CFSE) for 4 and 8 days. Proliferated CD4^+ or CD8^+ T cell counts were analyzed by flow cytometry (BD FACSCalibur) using PE-labeled specific antibody against CD4 or CD8, respectively. […]
(§2) To test the immunogenicity of these peptides, HLA-Tg B6 mice were immunized twice with individual IFA-emulsified peptide No. 3, 14, 23, or peptide 17 at day 0 and day 7. […] Proliferated CD4^+ and CD8^+ lymphocytes in response to CD8 epitope were counted by a flow cytometry analysis using specific anti-CD4 and CD8 antibodies conjugated with FITC, respectively. […]

[5] = system: peptide-loaded T2 cells; assay: Cytotoxicity (CTL) assay, CFSE/7-AAD, splenocytes of peptide-immunized mice against peptide-loaded T2 cells; type: in vivo, mouse; settings: E:T ratio of 100:1; IFA vehicle background 6.5%
Method: A non-radioactive assay of cell-mediated cytotoxicity was performed using green fluorescent probes 5-(6)-carboxyfluorescein diacetate succinimidyl ester (CFSE) to label target cells in combination with 7-amino-actinomycin D (7AAD), a red fluorescent probe to label dead effector and dead target cells. The assay was used to assess the presence of the RSV F protein-specific CTLs in the spleens or lungs of the immunized animals [Russell et al. (2002) “Lymphocyte-mediated cytotoxicity” Annu Rev Immunol 20:323-70]. The assay protocol was in accordance with the manufacturer's instructions (Cayman Chemical, Michigan, USA). […]
The CFSE-labeled target cells were resuspended in the culture medium and incubated at 37° C. of CO2 incubator for 30 minutes. […] The CFSE positive cells were measured in the FL1 channel and 7-AAD stained cells were measured in the FL3 channel. The percentage of CFSE/7-AAD double positive target cells (i.e., T2 cell death) was analyzed.
It has been reported that in primary RSV infection of BALB/c mice, CTLs generated against the F, matrix 2 (M2) and N viral proteins play a protective role in virus clearance. […] A mean background percentage of the killed target cells co-cultured with the control splenocytes isolated from the mouse previously immunized with the vehicle IFA was scored (6.5% at the E:T ratio of 100:1). […]

[6] = system: CD4+ lymphocytes of peptide-immunized HLA-Tg B6 mice; assay: CD4+ T cell proliferation (CFSE, cell dividing index) in peptide-immunized mice; type: in vivo, mouse; settings: mice immunized s.c. twice with 50 μg peptide in IFA; 8 days of restimulation by the same peptide
Method: as §1, §2

[7] = system: spleen lymphocytes of peptide-immunized HLA-Tg B6 mice; assay: IFN-γ ELISPOT, peptide-restimulated splenocytes of peptide-immunized mice; type: in vivo, mouse
Method: as §1
Following 2 hr of incubation at room temperature, the plate was washed with 200 μL of wash buffer. […] The plates were washed with water, air-dried overnight, and the spots per culture were scored using the immunospot counting reader (C.T.L. IMMUNOSPOT, […] TECHNOLOGY LTD). Results were expressed as the number of cytokine-secreting cells per 5×10^5 splenocytes seeded at culture initiation. […]

[8] = system: eosinophile count in peripheral blood or lung; type: in vivo, mouse; settings: peptide-immunized mice challenged with RSV; data not shown

**Q.** For AITTILAAV [compound 3], which “infiltrated CD4+ and CD8+ T cells in the lungs” value [1] is on record?
**A.** few infiltrated CD4^+ and CD8^+ T cells

**Q.** “ALLSTNKAV (F193-201) [compound 8, 9-mer synthetic peptide from the F protein of RSV-B1 strain]” was tested. Which “binding affinity higher than the baseline” value [2] did it give?
**A.** 10%

**Q.** With “FLLGVGSAI (F163-171) [compound 6, 9-mer synthetic peptide from the F protein of RSV-B1 strain]” as the sequence, how does the “binding affinity higher than the baseline” value [2] read?
**A.** 10%

**Q.** For KIMTSKTDV [compound 17], which “infiltrated CD4+ and CD8+ T cells in the lungs” value [1] is on record?
**A.** few infiltrated CD4^+ and CD8^+ T cells

**Q.** “KLMSNNVQI (F295-303) [compound 15, 9-mer synthetic peptide from the F protein of RSV-B1 strain]” was tested. Which “mean of fluorescence intensity (MFI) ratio, binding to HLA-A*0201” value (from here on “mean … (MFI) ratio, binding to HLA-A*0201”) [2] did it give?
**A.** about 1.5

**Q.** Which results are given for “KVLDLKNYI (F214-222) [compound 13, 9-mer synthetic peptide from the F protein of RSV-B1 strain]”?
**A.** protection against live RSV challenge (lung viral plaques, in words) [3]: not protected; binding activity to HLA-A*0201 molecules (in words) [2]: strong binding activity; binding affinity higher than the baseline [2]: 10%; CD8+ lymphocyte proliferation [4]: did not elicit CD8^+ lymphocyte proliferation; percentage of killed target cells (CFSE and 7-AAD double positive T2 cells), CTL response [5]: 15.4%; CD4+ cell proliferation [6]: did not manifest cell proliferation; IFN-γ level (ELISPOT, in words) [7]: background level of IFN-γ

**Q.** For “LLSLIAVGL (F561-569) [compound 24, 9-mer synthetic peptide from the F protein of RSV-B1 strain]”, which “mean … (MFI) ratio, binding to HLA-A*0201” value [2] is on record?
**A.** about 1.5

**Q.** “LLSTNKAVV (F194-202) [compound 9, 9-mer synthetic peptide from the F protein of RSV-B1 strain]” was tested. Which “mean … (MFI) ratio, binding to HLA-A*0201” value [2] did it give?
**A.** about 1.5

**Q.** “LMSNNVQIV (F296-304) [compound 16, 9-mer synthetic peptide from the F protein of RSV-B1 strain]” was tested. Which “mean … (MFI) ratio, binding to HLA-A*0201” value [2] did it give?
**A.** about 1.5

**Q.** With “SLIAVGLLL (F563-571) [compound 25, 9-mer synthetic peptide from the F protein of RSV-B1 strain]” as the sequence, how does the “binding affinity higher than the baseline” value [2] read?
**A.** 10%

**Q.** With “SVGNTLYYV (F474-482) [compound 18, 9-mer synthetic peptide from the F protein of RSV-B1 strain]” as the sequence, how does the “binding affinity higher than the baseline” value [2] read?
**A.** 10%

**Q.** “TLLLWVLLL (F5-13) [compound 1, 9-mer synthetic peptide from the F protein of RSV-B1 strain]” was tested. Which “binding affinity higher than the baseline” value [2] did it give?
**A.** 10%

**Q.** What does the source list for VILLSLIAV [compound 23]?
**A.** infiltrated CD4+ and CD8+ T cells in the lungs [1]: more infiltrated CD4^+ and CD8^+ T cells; also recorded: severe CD8^+ lymphocytic inflammation; eosinophilia (eosinophile count in peripheral blood or lung) [8]: not eosinophilia

**Q.** With YMLTNSELL [compound 14] as the sequence, how does the “infiltrated CD4+ and CD8+ T cells in the lungs” value [1] read?
**A.** few infiltrated CD4^+ and CD8^+ T cells

**Q.** What about the “eosinophilia (eosinophile count in peripheral blood or lung)” value [8] of the same sequence?
**A.** absence of pulmonary eosinophilia
